Blank lines part the entries; values can stand above or below the compound they belong to.
Assays:
Assay type in all cases: biochemical
PTPN2 [1] = molecular target: T1, PTPN2 (Homo sapiens, UniProt P17706); assay: RP-UFLC phosphatase assay with FAM-pStat1 peptide; time- and concentration-dependent inactivation kinetics (ki […] ^-1 min^-1)
T1 construct: full length human PTPN2 (TC45 variant), 6xHis-tagged
T1 sequence (P17706 1-381 limits assumed): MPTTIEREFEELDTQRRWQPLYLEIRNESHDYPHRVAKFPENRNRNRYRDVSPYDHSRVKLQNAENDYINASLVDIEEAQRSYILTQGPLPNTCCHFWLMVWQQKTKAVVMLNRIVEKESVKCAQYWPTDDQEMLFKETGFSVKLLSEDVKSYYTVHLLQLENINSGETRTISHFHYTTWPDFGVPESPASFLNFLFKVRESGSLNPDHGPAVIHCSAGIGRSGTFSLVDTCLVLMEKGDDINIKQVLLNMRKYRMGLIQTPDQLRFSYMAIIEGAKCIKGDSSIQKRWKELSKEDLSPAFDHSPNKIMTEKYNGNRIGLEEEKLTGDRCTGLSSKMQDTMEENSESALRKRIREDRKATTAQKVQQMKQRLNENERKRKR

PTPN2 [2] = molecular target: T1, PTPN2; assay: RP-UFLC phosphatase assay with FAM-pStat1 peptide
PTPN2 [3] = molecular target: T1, PTPN2; assay: dephosphorylation of chromogenic substrate by purified enzyme

IC50 (PTPN2 [1]): 180 µM
Structure (SMILES): C=CS(=O)(=O)Oc1ccccc1 [PVSN, phenyl vinyl sulfonate]

Structure (SMILES): [O]=[V]([OH])([OH])[OH] [orthovanadate]
IC50 (PTPN2 [2]): ~1 µM

Structure (SMILES): O=[N+]([O-])c1ccc(OP(=O)(O)O)cc1 [pNPP, p-nitrophenyl phosphate]
dephosphorylation of chromogenic substrate by purified enzyme (PTPN2 [3]): Purified PTPN2 was functional as demonstrated by the dephosphorylation of the non-proteinaceous and non-specific chromogenic substrate p-nitrophenyl phosphate (pNPP)

Reference: publication PMC4455150, “A RP-UFLC Assay for Protein Tyrosine Phosphatases: Focus on Protein Tyrosine Phosphatase Non-Receptor Type 2 (PTPN2)” (Scientific Reports, 2015)
